Calls of active or inactive are those of the source. The calls are words filed in the database; no cut-off is given here.
Tests used:
Type in all cases: functional
Aspergillus niger [1] = test: Antifungal activity against Aspergillus niger assessed as diameter of inhibition zone at 50 ug/well after 48 hrs by agar well diffusion method; settings: read-out: DIZ
Staphylococcus aureus [2] = test: Antibacterial activity against Staphylococcus aureus assessed as diameter of inhibition zone at 12.5 ug/well after 24 hrs by agar well diffusion method; settings: for zone of inhibition at 12.5 µg/disc: read-out: DIZ
Klebsiella pneumoniae [3] = test: Antibacterial activity against Klebsiella pneumoniae assessed as diameter of inhibition zone at 100 ug/well after 24 hrs by agar well diffusion method; settings: for zone of inhibition at 100 µg/disc: read-out: DIZ
Klebsiella pneumoniae [4] = test: Antibacterial activity against Klebsiella pneumoniae assessed as diameter of inhibition zone at 12.5 ug/well after 24 hrs by agar well diffusion method; settings: for zone of inhibition at 12.5 µg/disc: read-out: DIZ
Klebsiella pneumoniae [5] = test: Antibacterial activity against Klebsiella pneumoniae assessed as diameter of inhibition zone at 25 ug/well after 24 hrs by agar well diffusion method; settings: for zone of inhibition at 25 µg/disc: read-out: DIZ
Penicillium chrysogenum [6] = test: Antifungal activity against Penicillium chrysogenum assessed as diameter of inhibition zone at 12.5 ug/well after 48 hrs by agar well diffusion method; settings: for zone of inhibition at 12.5 µg/disc: read-out: DIZ
Bacillus subtilis [7] = test: Antibacterial activity against Bacillus subtilis assessed as diameter of inhibition zone at 50 ug/well after 24 hrs by agar well diffusion method; settings: for zone of inhibition at 50 µg/disc: read-out: DIZ
Penicillium chrysogenum [8] = test: Antifungal activity against Penicillium chrysogenum assessed as diameter of inhibition zone at 25 ug/well after 48 hrs by agar well diffusion method; settings: for zone of inhibition at 25 µg/disc: read-out: DIZ
Bacillus subtilis [9] = test: Antibacterial activity against Bacillus subtilis assessed as diameter of inhibition zone at 25 ug/well after 24 hrs by agar well diffusion method; settings: for zone of inhibition at 25 µg/disc: read-out: DIZ
Aspergillus niger [10] = test: Antifungal activity against Aspergillus niger assessed as diameter of inhibition zone at 100 ug/well after 48 hrs by agar well diffusion method; settings: read-out: DIZ
Bacillus subtilis [11] = test: Antibacterial activity against Bacillus subtilis assessed as diameter of inhibition zone at 12.5 ug/well after 24 hrs by agar well diffusion method; settings: for zone of inhibition at 12.5 µg/disc: read-out: DIZ
Penicillium chrysogenum [12] = test: Antifungal activity against Penicillium chrysogenum assessed as diameter of inhibition zone at 100 ug/well after 48 hrs by agar well diffusion method; settings: for zone of inhibition at 100 µg/disc: read-out: DIZ
Bacillus subtilis [13] = test: Antibacterial activity against Bacillus subtilis assessed as diameter of inhibition zone at 100 ug/well after 24 hrs by agar well diffusion method; settings: for zone of inhibition at 100 µg/disc: read-out: DIZ
Staphylococcus aureus [14] = test: Antibacterial activity against Staphylococcus aureus assessed as diameter of inhibition zone at 25 ug/well after 24 hrs by agar well diffusion method; settings: for zone of inhibition at 25 µg/disc: read-out: DIZ
Aspergillus niger [15] = test: Antifungal activity against Aspergillus niger assessed as diameter of inhibition zone at 25 ug/well after 48 hrs by agar well diffusion method; settings: for zone of inhibition at 25 µg/disc: read-out: DIZ
Staphylococcus aureus [16] = test: Antibacterial activity against Staphylococcus aureus assessed as diameter of inhibition zone at 50 ug/well after 24 hrs by agar well diffusion method; settings: for zone of inhibition at 50 µg/disc: read-out: DIZ
Klebsiella pneumoniae [17] = test: Antibacterial activity against Klebsiella pneumoniae assessed as diameter of inhibition zone at 50 ug/well after 24 hrs by agar well diffusion method; settings: for zone of inhibition at 50 µg/disc: read-out: DIZ
Staphylococcus aureus [18] = test: Antibacterial activity against Staphylococcus aureus assessed as diameter of inhibition zone at 100 ug/well after 24 hrs by agar well diffusion method; settings: for zone of inhibition at 100 µg/disc: read-out: DIZ
Penicillium chrysogenum [19] = test: Antifungal activity against Penicillium chrysogenum assessed as diameter of inhibition zone at 50 ug/well after 48 hrs by agar well diffusion method; settings: for zone of inhibition at 50 µg/disc: read-out: DIZ
Aspergillus niger [20] = test: Antifungal activity against Aspergillus niger assessed as diameter of inhibition zone at 12.5 ug/well after 48 hrs by agar well diffusion method; settings: for zone of inhibition at 12.5 µg/disc: read-out: DIZ
Pseudomonas aeruginosa [21] = test: Antibacterial activity against Pseudomonas aeruginosa assessed as diameter of inhibition zone at 100 ug/well after 24 hrs by agar well diffusion method; settings: for zone of inhibition at 100 µg/disc: read-out: DIZ
Pseudomonas aeruginosa [22] = test: Antibacterial activity against Pseudomonas aeruginosa assessed as diameter of inhibition zone at 12.5 ug/well after 24 hrs by agar well diffusion method; settings: for zone of inhibition at 12.5 µg/disc: read-out: DIZ
Pseudomonas aeruginosa [23] = test: Antibacterial activity against Pseudomonas aeruginosa assessed as diameter of inhibition zone at 50 ug/well after 24 hrs by agar well diffusion method; settings: for zone of inhibition at 50 µg/disc: read-out: DIZ
Pseudomonas aeruginosa [24] = test: Antibacterial activity against Pseudomonas aeruginosa assessed as diameter of inhibition zone at 25 ug/well after 24 hrs by agar well diffusion method; settings: for zone of inhibition at 25 µg/disc: read-out: DIZ

SMILES | zone of inhibition at 50 µg/disc (Aspergillus niger [1]) [mm] | diameter of the inhibition zone (DIZ) (Staphylococcus aureus [2]) | zone of inhibition at 100 µg/disc (Klebsiella pneumoniae [3]) [mm] | diameter of the inhibition zone (DIZ) (Klebsiella pneumoniae [4]) | diameter of the inhibition zone (DIZ) (Klebsiella pneumoniae [5]) | diameter of the inhibition zone (DIZ) (Penicillium chrysogenum [6]) | diameter of the inhibition zone (DIZ) (Bacillus subtilis [7]) | diameter of the inhibition zone (DIZ) (Penicillium chrysogenum [8]) | diameter of the inhibition zone (DIZ) (Bacillus subtilis [9]) | zone of inhibition at 100 µg/disc (Aspergillus niger [10]) [mm] | diameter of the inhibition zone (DIZ) (Bacillus subtilis [11]) | diameter of the inhibition zone (DIZ) (Penicillium chrysogenum [12]) | diameter of the inhibition zone (DIZ) (Bacillus subtilis [13]) | diameter of the inhibition zone (DIZ) (Staphylococcus aureus [14]) | diameter of the inhibition zone (DIZ) (Aspergillus niger [15]) | diameter of the inhibition zone (DIZ) (Staphylococcus aureus [16]) | zone of inhibition at 50 µg/disc (Klebsiella pneumoniae [17]) [mm] | zone of inhibition at 100 µg/disc (Pseudomonas aeruginosa [21]) [mm] | zone of inhibition at 50 µg/disc (Pseudomonas aeruginosa [23]) [mm] | zone of inhibition at 25 µg/disc (Pseudomonas aeruginosa [24]) [mm] | other results
Cc1ccc(-c2nnc(CSc3cc(C)nc(SCc4nnc(-c5ccc(C)cc5)o4)n3)o2)cc1 | 7 | inactive | 10 | inactive | inactive | inactive | inactive | inactive | inactive | 9 | inactive | inactive | inactive | inactive | inactive | inactive | 8 | 12 | 10 | 8 | diameter of the inhibition zone (DIZ) (Staphylococcus aureus [18]): inactive; diameter of the inhibition zone (DIZ) (Penicillium chrysogenum [19]): inactive; diameter of the inhibition zone (DIZ) (Aspergillus niger [20]): inactive; diameter of the inhibition zone (DIZ) (Pseudomonas aeruginosa [22]): inactive
Cc1cc(SCc2nnc(-c3ccccc3)s2)nc(SCc2nnc(-c3ccccc3)s2)n1 | 19 | – | 26 | – | – | – | – | – | – | 22 | – | – | – | – | – | – | 23 | 24 | 20 | 19 | zone of inhibition at 12.5 µg/disc (Staphylococcus aureus [2]): 10 mm; zone of inhibition at 12.5 µg/disc (Klebsiella pneumoniae [4]): 20 mm; zone of inhibition at 25 µg/disc (Klebsiella pneumoniae [5]): 21 mm; zone of inhibition at 12.5 µg/disc (Penicillium chrysogenum [6]): 9 mm; zone of inhibition at 50 µg/disc (Bacillus subtilis [7]): 15 mm; zone of inhibition at 25 µg/disc (Penicillium chrysogenum [8]): 10 mm; zone of inhibition at 25 µg/disc (Bacillus subtilis [9]): 13 mm; zone of inhibition at 12.5 µg/disc (Bacillus subtilis [11]): 11 mm; zone of inhibition at 100 µg/disc (Penicillium chrysogenum [12]): 14 mm; zone of inhibition at 100 µg/disc (Bacillus subtilis [13]): 18 mm; zone of inhibition at 25 µg/disc (Staphylococcus aureus [14]): 11 mm; zone of inhibition at 25 µg/disc (Aspergillus niger [15]): 17 mm; zone of inhibition at 50 µg/disc (Staphylococcus aureus [16]): 12 mm; zone of inhibition at 100 µg/disc (Staphylococcus aureus [18]): 13 mm; zone of inhibition at 50 µg/disc (Penicillium chrysogenum [19]): 12 mm; zone of inhibition at 12.5 µg/disc (Aspergillus niger [20]): 15 mm; zone of inhibition at 12.5 µg/disc (Pseudomonas aeruginosa [22]): 15 mm
COc1ccc(-c2nnc(CSc3cc(C)nc(SCc4nnc(-c5ccc(OC)cc5)n4N)n3)n2N)cc1 | 8 | inactive | – | inactive | inactive | inactive | inactive | inactive | inactive | 10 | inactive | inactive | inactive | inactive | inactive | inactive | – | – | – | – | diameter of the inhibition zone (DIZ) (Klebsiella pneumoniae [3]): inactive; diameter of the inhibition zone (DIZ) (Klebsiella pneumoniae [17]): inactive; diameter of the inhibition zone (DIZ) (Staphylococcus aureus [18]): inactive; diameter of the inhibition zone (DIZ) (Penicillium chrysogenum [19]): inactive; diameter of the inhibition zone (DIZ) (Aspergillus niger [20]): inactive; diameter of the inhibition zone (DIZ) (Pseudomonas aeruginosa [21]): inactive; diameter of the inhibition zone (DIZ) (Pseudomonas aeruginosa [22]): inactive; diameter of the inhibition zone (DIZ) (Pseudomonas aeruginosa [23]): inactive; diameter of the inhibition zone (DIZ) (Pseudomonas aeruginosa [24]): inactive
Cc1cc(SCc2nnc(-c3ccccc3)n2N)nc(SCc2nnc(-c3ccccc3)n2N)n1 | 21 | – | 24 | – | – | – | – | – | – | 24 | – | – | – | – | – | – | 22 | 23 | 19 | 16 | zone of inhibition at 12.5 µg/disc (Staphylococcus aureus [2]): 8 mm; zone of inhibition at 12.5 µg/disc (Klebsiella pneumoniae [4]): 17 mm; zone of inhibition at 25 µg/disc (Klebsiella pneumoniae [5]): 19 mm; zone of inhibition at 12.5 µg/disc (Penicillium chrysogenum [6]): 11 mm; zone of inhibition at 50 µg/disc (Bacillus subtilis [7]): 14 mm; zone of inhibition at 25 µg/disc (Penicillium chrysogenum [8]): 12 mm; zone of inhibition at 25 µg/disc (Bacillus subtilis [9]): 12 mm; zone of inhibition at 12.5 µg/disc (Bacillus subtilis [11]): 10 mm; zone of inhibition at 100 µg/disc (Penicillium chrysogenum [12]): 16 mm; zone of inhibition at 100 µg/disc (Bacillus subtilis [13]): 17 mm; zone of inhibition at 25 µg/disc (Staphylococcus aureus [14]): 9 mm; zone of inhibition at 25 µg/disc (Aspergillus niger [15]): 19 mm; zone of inhibition at 50 µg/disc (Staphylococcus aureus [16]): 10 mm; zone of inhibition at 100 µg/disc (Staphylococcus aureus [18]): 12 mm; zone of inhibition at 50 µg/disc (Penicillium chrysogenum [19]): 14 mm; zone of inhibition at 12.5 µg/disc (Aspergillus niger [20]): 17 mm; zone of inhibition at 12.5 µg/disc (Pseudomonas aeruginosa [22]): 14 mm
